Measurements as given in US20080064667A1, “OXAZOLE DERIVATIVES OF TETRACYCLINES” (Wyeth, priority 2003, published 2008).
In brackets after ≈: the same amount, converted by molar mass.

Tests used:
Test in all cases: MIC, broth microdilution (NCCLS)
Type in all cases: cell-based
[1] = system: S. aureus GC6466 (tet(M)); conditions: Staphylococcus aureus, Mueller-Hinton II broth, 18-22 hours at 35° C.
Experimental: (§1) Methods for in Vitro Antibacterial Evaluation
(§2) The Minimum Inhibitory Concentration (MIC)
(§3) Antimicrobial susceptibility testing. The in vitro activities of the antibiotics are determined by the broth microdilution method as recommended by the National Committee for Clinical Laboratory Standards (NCCLS) (1). Mueller-Hinton II broth (MHBII)(BBL Cockeysville, Md.) is the medium employed in the testing procedures. Microtiter plates containing serial dilutions of each antimicrobial agent are inoculated with each organism to yield the appropriate density (10^5 CFU/ml) in a 100 μl final volume. The plates are incubated for 18-22 hours at 35° C. in ambient air.
(§4) 1. NCCLS. 2000. Methods for Dilution Antimicrobial Susceptibility Tests for Bacteria That Grow Aerobically; Approved Standards: M7-A5, vol. 20. National Committe for Clinical Laboratory Standards, Wayne, Pa.

[2] = system: S. aureus GC2216 (ATCC Control); conditions: Staphylococcus aureus, Mueller-Hinton II broth, 18-22 hours at 35° C.
Experimental: as §1, §2, §3, §4

[3] = system: C. albicans GC3066 ATCC (Control); conditions: Candida albicans, Mueller-Hinton II broth, 18-22 hours at 35° C.
Experimental: as §1, §2, §3, §4

[4] = system: S. pyogenes* GC4563 (Clinical); conditions: Streptococcus pyogenes, Mueller-Hinton II broth, 18-22 hours at 35° C.
Experimental: as §1, §2, §3, §4

[5] = system: E. faecalis GC4555 (ATCC Control); conditions: Enterococcus faecalis, Mueller-Hinton II broth, 18-22 hours at 35° C.
Experimental: as §1, §2, §3, §4

[6] = system: S. aureus GC1079 (tet(K)); conditions: Staphylococcus aureus, Mueller-Hinton II broth, 18-22 hours at 35° C.
Experimental: as §1, §2, §3, §4

[7] = system: E. coli GC2270 (tet(M)); conditions: Escherichia coli
Experimental: as §1, §2, §3, §4

[8] = system: E. coli GC1073 (tet(B)); conditions: Escherichia coli
Experimental: as §1, §2, §3, §4

[9] = system: E. coli GC2203 (ATCC Control); conditions: Escherichia coli, Mueller-Hinton II broth, 18-22 hours at 35° C.
Experimental: as §1, §2, §3, §4

[10] = system: M. catarrhalis* GC6907 (Clinical); conditions: Moraxella catarrhalis, Mueller-Hinton II broth, 18-22 hours at 35° C.
Experimental: as §1, §2, §3, §4

[11] = system: H. influenzae<> GC6896 (ATCC Control); conditions: Haemophilus influenzae, Mueller-Hinton II broth, 18-22 hours at 35° C.
Experimental: as §1, §2, §3, §4

[12] = system: S. aureus GC1131 (Clinical); conditions: Staphylococcus aureus, Mueller-Hinton II broth, 18-22 hours at 35° C.
Experimental: as §1, §2, §3, §4

[13] = system: S. aureus GC4536 (Smith MP -In Vivo); conditions: Staphylococcus aureus, Mueller-Hinton II broth, 18-22 hours at 35° C.
Experimental: as §1, §2, §3, §4

[14] = system: S. pneumoniae* GC1894 (Clinical); conditions: Streptococcus pneumoniae, Mueller-Hinton II broth, 18-22 hours at 35° C.
Experimental: as §1, §2, §3, §4

[15] = system: E. coli GC4559 (parent GC4560); conditions: Escherichia coli, Mueller-Hinton II broth, 18-22 hours at 35° C.
Experimental: as §1, §2, §3, §4

[16] = system: S. pneumoniae* GC4465 (Clinical); conditions: Streptococcus pneumoniae, Mueller-Hinton II broth, 18-22 hours at 35° C.
Experimental: as §1, §2, §3, §4

[17] = system: E. coli GC4560 (IMP mutant); conditions: Escherichia coli
Experimental: as §1, §2, §3, §4

[18] = system: E. faecalis GC2242 (Van-resistant); conditions: Enterococcus faecalis, Mueller-Hinton II broth, 18-22 hours at 35° C.
Experimental: as §1, §2, §3, §4

| Structure (SMILES) | MIC [1] [µg/mL] | MIC [2] [µg/mL] | MIC [3] [µg/mL] | MIC [4] [µg/mL] | MIC [5] [µg/mL] | MIC [6] [µg/mL] | MIC [7] [µg/mL] | MIC [8] [µg/mL] | MIC [9] [µg/mL] | MIC [10] [µg/mL] | MIC [11] [µg/mL] | MIC [12] [µg/mL] | MIC [13] [µg/mL] | MIC [14] [µg/mL] | MIC [15] [µg/mL] | MIC [16] [µg/mL] | MIC [17] [µg/mL] | MIC [18] [µg/mL] |
| --- | --- | --- | --- | --- | --- | --- | --- | --- | --- | --- | --- | --- | --- | --- | --- | --- | --- | --- |
| CN(C)c1cc2nc(/C=C/c3ccc(F)cc3)oc2c2c1C[C@H]1C[C@H]3[C@H](N(C)C)C(O)=C(C(N)=O)C(=O)[C@@]3(O)C(O)=C1C2=O [Example 29, (6aR,7aS,8S,11aS)-5,8-bis(dimethylamino)-2-[(E)-2-(4-fluorophenyl)ethenyl]-9,11a,12-trihydroxy-11,13-dioxo-6,6a,7,7a,8,11,11a,13-octahydrotetraceno[2,1-d][1,3]oxazole-10-carboxamide] | 8 (≈ 13.3 µM) | 8 (≈ 13.3 µM) | > 64 | 16 (≈ 26.6 µM) | 8 (≈ 13.3 µM) | 8 (≈ 13.3 µM) | > 64 | > 64 | > 64 | 16 (≈ 26.6 µM) | > 64 | 8 (≈ 13.3 µM) | 8 (≈ 13.3 µM) | 32 (≈ 53.1 µM) | > 64 | 32 (≈ 53.1 µM) | 8 (≈ 13.3 µM) | 8 (≈ 13.3 µM) |
| Cc1ccc(-c2nc3cc(N(C)C)c4c(c3o2)C(=O)C2=C(O)[C@]3(O)C(=O)C(C(N)=O)=C(O)[C@@H](N(C)C)[C@@H]3C[C@@H]2C4)cc1 [Example 5, (6aR,7aS,8S,11aS)-5,8-bis(dimethylamino)-9,11a,12-trihydroxy-2-(4-methylphenyl)-11,13-dioxo-6,6a,7,7a,8,11,11a,13-octahydrotetraceno[2,1-d][1,3]oxazole-10-carboxamide] | 4 (≈ 6.99 µM) | 4 (≈ 6.99 µM) | > 64 | 16 (≈ 27.9 µM) | 4 (≈ 6.99 µM) | 4 (≈ 6.99 µM) | > 64 | > 64 | > 64 | 16 (≈ 27.9 µM) | > 64 | 4 (≈ 6.99 µM) | 4 (≈ 6.99 µM) | 8 (≈ 14 µM) | > 64 | 16 (≈ 27.9 µM) | 4 (≈ 6.99 µM) | 4 (≈ 6.99 µM) |
| CN(C)c1cc2nc(/C=C/c3ccccc3)oc2c2c1C[C@H]1C[C@H]3[C@H](N(C)C)C(O)=C(C(N)=O)C(=O)[C@@]3(O)C(O)=C1C2=O [Example 25, (6aR,7aS,8S,11aS)-5,8-bis(dimethylamino)-9,1a,12-trihydroxy-11,13-dioxo-2-[(E)-2-phenylethenyl]-6,6a,7,7a,8,11,11a,13-octahydrotetraceno[2,1-d][1,3]oxazole-10-carboxamide] | 4 (≈ 6.84 µM) | 4 (≈ 6.84 µM) | > 64 | 16 (≈ 27.4 µM) | 8 (≈ 13.7 µM) | 4 (≈ 6.84 µM) | > 64 | > 64 | > 64 | 16 (≈ 27.4 µM) | > 64 | 8 (≈ 13.7 µM) | 8 (≈ 13.7 µM) | 32 (≈ 54.7 µM) | > 64 | 32 (≈ 54.7 µM) | 8 (≈ 13.7 µM) | 4 (≈ 6.84 µM) |
| CCOc1cc(OCC)c(-c2nc3cc(N(C)C)c4c(c3o2)C(=O)C2=C(O)[C@]3(O)C(=O)C(C(N)=O)=C(O)[C@@H](N(C)C)[C@@H]3C[C@@H]2C4)cc1OCC [Example 16, (6aR,7aS,8S,11aS)-5,8-bis(dimethylamino)-9,11a,12-trihydroxy-11,13-dioxo-2-(2,4,5-triethoxyphenyl)-6,6a,7,7a,8,11,11a,13-octahydrotetraceno[2,1-d][1,3]oxazole-10-carboxamide] | 16 (≈ 23.2 µM) | 16 (≈ 23.2 µM) | > 64 | 64 (≈ 92.7 µM) | 16 (≈ 23.2 µM) | 16 (≈ 23.2 µM) | > 64 | > 64 | > 64 | > 64 | > 64 | 16 (≈ 23.2 µM) | 16 (≈ 23.2 µM) | > 64 | > 64 | > 64 | 16 (≈ 23.2 µM) | 16 (≈ 23.2 µM) |
| CN(C)c1cc2nc(-c3ccc(O)cc3O)oc2c2c1C[C@H]1C[C@H]3[C@H](N(C)C)C(O)=C(C(N)=O)C(=O)[C@@]3(O)C(O)=C1C2=O [Example 12, (6aR,7aS,8S,11aS)-2-(2,4-dihydroxyphenyl)-5,8-bis(dimethylamino)-9,11a,12-trihydroxy-11,13-dioxo-6,6a,7,7a,8,11,11a,13-octahydrotetraceno[2,1-d][1,3]oxazole-10-carboxamide] | 8 (≈ 13.5 µM) | 4 (≈ 6.77 µM) | > 64 | 4 (≈ 6.77 µM) | 8 (≈ 13.5 µM) | 8 (≈ 13.5 µM) | > 64 | > 64 | 32 (≈ 54.2 µM) | 4 (≈ 6.77 µM) | 16 (≈ 27.1 µM) | 4 (≈ 6.77 µM) | 8 (≈ 13.5 µM) | 8 (≈ 13.5 µM) | > 64 | 8 (≈ 13.5 µM) | 4 (≈ 6.77 µM) | 8 (≈ 13.5 µM) |
| CN(C)c1cc2nc(-c3ccco3)oc2c2c1C[C@H]1C[C@H]3[C@H](N(C)C)C(O)=C(C(N)=O)C(=O)[C@@]3(O)C(O)=C1C2=O [Example 20, (6aR,7aS,8S,1aS)-5,8-bis(dimethylamino)-2-(2-furyl)-9,11a,1 2-trihydroxy-11,13-dioxo-6,6a,7,7a,8,11,11a,13-octahydrotetraceno[2,1-d][1,3]oxazole-10-carboxamide] | 32 (≈ 58.3 µM) | 32 (≈ 58.3 µM) | > 64 | 32 (≈ 58.3 µM) | 64 (≈ 117 µM) | 32 (≈ 58.3 µM) | > 64 | > 64 | > 64 | 32 (≈ 58.3 µM) | > 64 | 32 (≈ 58.3 µM) | 64 (≈ 117 µM) | 64 (≈ 117 µM) | > 64 | > 64 | 32 (≈ 58.3 µM) | 32 (≈ 58.3 µM) |
| CN(C)c1cc2nc(C=C(c3ccccc3)c3ccccc3)oc2c2c1C[C@H]1C[C@H]3[C@H](N(C)C)C(O)=C(C(N)=O)C(=O)[C@@]3(O)C(O)=C1C2=O [Example 1, (6aR,7aS,8S,11aS)-5,8-bis(dimethylamino)-2-(2,2-diphenylvinyl)-9,11a,12-trihydroxy-11,13-dioxo-6,6a,7,7a,8,11,11a,13-octahydrotetraceno[2,1-d][1,3]oxazole-10-carboxamide] | 32 (≈ 48.4 µM) | 16 (≈ 24.2 µM) | > 64 | 8 (≈ 12.1 µM) | 32 (≈ 48.4 µM) | 16 (≈ 24.2 µM) | > 64 | > 64 | > 64 | > 64 | > 64 | 16 (≈ 24.2 µM) | 16 (≈ 24.2 µM) | 8 (≈ 12.1 µM) | > 64 | 16 (≈ 24.2 µM) | 32 (≈ 48.4 µM) | 16 (≈ 24.2 µM) |
| CN(C)c1cc2nc(/C=C/c3ccccc3F)oc2c2c1C[C@H]1C[C@H]3[C@H](N(C)C)C(O)=C(C(N)=O)C(=O)[C@@]3(O)C(O)=C1C2=O [Example 30, (6aR,7aS,8S,11aS)-5,8-bis(dimethylamino)-2-[(E)-2-(2-fluorophenyl)ethenyl]-9,11a,12-trihydroxy-11,13-dioxo-6,6a,7,7a,8,11,11a,13-octahydrotetraceno[2,1-d][1,3]oxazole-10-carboxamide] | 8 (≈ 13.3 µM) | 4 (≈ 6.64 µM) | > 64 | 16 (≈ 26.6 µM) | 8 (≈ 13.3 µM) | 8 (≈ 13.3 µM) | > 64 | > 64 | > 64 | 32 (≈ 53.1 µM) | > 64 | 4 (≈ 6.64 µM) | 8 (≈ 13.3 µM) | 16 (≈ 26.6 µM) | > 64 | 16 (≈ 26.6 µM) | 8 (≈ 13.3 µM) | 4 (≈ 6.64 µM) |
